Where two headings read alike, the source gives them in different places.
Experiments:
[1] = target: T1, androgen receptor (hAR) (Homo sapiens (Human), UniProt P10275); experiment: biochemical; format: binding
Description: In order to examine binding ability of the agonists of the present invention to androgen receptors, the following in-vitro experiment was performed. African green monkey kidney fibroblast-like cell line, COS-7 (ATCC, #CRL-1651) was seeded in a 48-well plate at a density of 2.5×10^4 cells/well, and cultured for 24 hours. Then, a plasmid hAR-mixed medium was added thereto. […] Thereafter, the cells were lysed and the amount of [3H]MIB bound to the intracellular androgen receptors was measured using a radiation dosimeter.

[2] = target: T1, androgen receptor (hAR); experiment: Test of transcriptional activity (hAR / ARE-Luc dual-luciferase assay in CHO cells); format: cell-based; details: CHO cells with hAR and ARE-Luc, 24 hours, 10 nM DHT = 100%
Method in brief: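 CHO cells cultured 24 h, then transfected with hAR and ARE-Luc plasmids. Transfected cells treated with 0.1˜10,000 nM compound for 24 h; transcriptional activity read by dual-luciferase reporter.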

[3] = system: castrated male rats; experiment: Efficacy test in castrated male rat (Hershberger assay); format: in vivo, SD (Sprague-Dawley) rat; details: castrated male SD rats, oral once a day for 14 days
Description: SD (Sprague-Dawley) male rats (7-week-old) were castrated under ketamine/xylazine anesthesia, and 5 rats were randomly assigned to one group. From the next day, the agonists were dissolved in a vehicle solution and orally administered at a dose of 5 ml per kg once a day for 14 days. As the vehicle, DMSO, Co-solvent, and DW were prepared at a ratio of 4:80:16 (v/v/v), and Co-solvent was prepared by mixing PEG400, Ethanol, and Tween 80 at a ratio of 85:10:5 (v/v/v). 24 hours after last administration of the drug, their body weight was measured and killed. Thereafter, levator ani muscle, ventral prostate, and seminal vesicles were removed and weighed (Hershberger assay). The following Table 6 represents the result of the efficacy test in castrated male rats.

[4] = read-out: EC50 [nM] (mean ± SE)

T1 sequence (P10275 whole entry): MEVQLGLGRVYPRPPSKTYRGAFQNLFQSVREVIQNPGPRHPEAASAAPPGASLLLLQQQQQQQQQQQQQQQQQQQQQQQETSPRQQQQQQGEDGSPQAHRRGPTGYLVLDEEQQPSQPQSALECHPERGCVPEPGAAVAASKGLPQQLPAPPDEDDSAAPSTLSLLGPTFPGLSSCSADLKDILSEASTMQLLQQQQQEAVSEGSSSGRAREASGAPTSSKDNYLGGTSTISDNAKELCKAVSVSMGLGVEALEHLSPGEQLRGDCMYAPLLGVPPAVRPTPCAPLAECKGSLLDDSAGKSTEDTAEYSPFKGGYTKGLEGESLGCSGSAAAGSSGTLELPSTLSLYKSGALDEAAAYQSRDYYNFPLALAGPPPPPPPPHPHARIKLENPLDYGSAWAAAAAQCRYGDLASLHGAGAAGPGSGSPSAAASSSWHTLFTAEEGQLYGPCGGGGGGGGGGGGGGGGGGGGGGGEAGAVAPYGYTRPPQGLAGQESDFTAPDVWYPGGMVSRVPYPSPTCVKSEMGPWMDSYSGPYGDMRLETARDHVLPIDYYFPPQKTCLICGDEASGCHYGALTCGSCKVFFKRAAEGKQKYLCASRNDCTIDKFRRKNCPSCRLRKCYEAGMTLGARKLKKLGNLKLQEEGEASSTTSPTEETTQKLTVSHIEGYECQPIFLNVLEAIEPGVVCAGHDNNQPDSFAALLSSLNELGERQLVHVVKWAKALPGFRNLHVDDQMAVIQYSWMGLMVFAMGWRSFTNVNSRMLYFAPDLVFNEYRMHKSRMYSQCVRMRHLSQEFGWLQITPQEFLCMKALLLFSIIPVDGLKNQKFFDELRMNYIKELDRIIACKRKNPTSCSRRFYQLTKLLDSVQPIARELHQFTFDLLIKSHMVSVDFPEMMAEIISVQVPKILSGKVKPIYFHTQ

Row | Molecule | levator ani muscle weight % relative to intact control group ([3]; 0.1 mg/kg) [%] | seminal vesicles weight % relative to intact control group ([3]; 0.1 mg/kg) [%] | levator ani muscle weight % relative to intact control group ([3]; 0.3 mg/kg) [%] | seminal vesicles weight % relative to intact control group ([3]; 0.3 mg/kg) [%] | ventral prostate weight % relative to intact control group ([3]; 0.3 mg/kg) [%] | levator ani muscle weight % relative to intact control group ([3]; 1 mg/kg) [%] | seminal vesicles weight % relative to intact control group ([3]; 1 mg/kg) [%] | ventral prostate weight % relative to intact control group ([3]; 1 mg/kg) [%] | levator ani muscle weight % relative to intact control group ([3]; 3 mg/kg) [%] | seminal vesicles weight % relative to intact control group ([3]; 3 mg/kg) [%] | ventral prostate weight % relative to intact control group ([3]; 3 mg/kg) [%] | levator ani muscle weight % relative to intact control group ([3]; 10 mg/kg) [%] | seminal vesicles weight % relative to intact control group ([3]; 10 mg/kg) [%] | ventral prostate weight % relative to intact control group ([3]; 10 mg/kg) [%] | levator ani muscle weight % relative to intact control group ([3]; 30 mg/kg) [%] | seminal vesicles weight % relative to intact control group ([3]; 30 mg/kg) [%] | ventral prostate weight % relative to intact control group ([3]; 30 mg/kg) [%] | levator ani muscle weight % relative to intact control group ([3]; 100 mg/kg) [%] | seminal vesicles weight % relative to intact control group ([3]; 100 mg/kg) [%] | ventral prostate weight % relative to intact control group ([3]; 100 mg/kg) [%] | other results
1 | N#Cc1ccc(COC[C@H]2CN(c3ccc(C#N)c(C(F)(F)F)c3)[C@H](C(F)(F)F)O2)cc1 [Example 4, 4-((2S,5R)-5-(((4-cyanobenzyl)oxy)methyl)-2-(trifluoromethyl)oxazolidin-3-yl)-2-(trifluoromethyl)benzonitrile] |  |  |  |  |  |  |  |  |  |  |  |  |  |  |  |  |  |  |  |  | IC50 ([1]; 1 nM [3H]MIB, hAR-transfected COS-7 cells, 2 hours, read-out: IC50 [nM] (mean ± SE)): 657 nM
2 | N#Cc1ccc(OC[C@H]2CN(c3ccc(C#N)c(C(F)(F)F)c3)[C@@H](C(F)(F)F)O2)cc1 [Example 5, 4-((2R,5R)-5-((4-cyanophenoxy)methyl)-2-(trifluoromethyl)oxazolidin-3-yl)-2-(trifluoromethyl)benzonitrile] |  |  |  |  |  |  |  |  |  |  |  |  |  |  |  |  |  |  |  |  | IC50 [1]: 91.6 nM
3 | COC(=O)Nc1ccc(OC[C@@H]2CN(c3ccc(C#N)c(C(F)(F)F)c3)[C@@H](C(F)(F)F)O2)cc1 [Example 36, methyl(4-(((2R,5S)-3-(4-cyano-3-(trifluoromethyl)phenyl)-2-(trifluoromethyl)oxazolidin-5-yl)methoxy)phenyl)carbamate] | 18.6 ± 2.2 | 2.4 ± 0.6 | 18.8 ± 2.7 | −0.2 ± 0.0 | 0.6 ± 0.1 | 53.9 ± 6.5 | 4.7 ± 1.0 | 8.0 ± 1.6 | 47.0 ± 2.6 | 3.0 ± 0.7 | 4.7 ± 1.9 | 55.2 ± 10.3 | 4.7 ± 0.7 | 5.8 ± 0.8 | 58.2 ± 5.8 | 10.4 ± 3.1 | 10.8 ± 3.1 | 65.3 ± 7.9 | 16.1 ± 4.0 | 12.6 ± 3.1 | EC50 ([2]; EC50 [nM] (mean ± SE)): 8.1 ± 1.9 nM; ventral prostate weight % relative to intact control group ([3]; 0.1 mg/kg): 1.0 ± 0.1%
4 | N#Cc1ccc(OC[C@@H]2CN(c3ccc(C#N)c(C(F)(F)F)c3)[C@@H](C(F)(F)F)O2)cn1 [Example 44, 5-(((2R,5S)-3-(4-cyano-3-(trifluoromethyl)phenyl)-2-(trifluoromethyl)oxazolidin-5-yl)methoxy)picolinonitrile] | 43.3 ± 8.1 | 6.7 ± 1.5 | 66.6 ± 8.7 | 16.9 ± 6.7 | 13.6 ± 5.0 | 82.4 ± 10.2 | 37.9 ± 4.3 | 26.1 ± 5.2 | 92.1 ± 6.5 | 54.5 ± 11.9 | 38.7 ± 8.3 | 87.0 ± 7.5 | 46.1 ± 10.8 | 28.2 ± 5.5 | 74.2 ± 2.8 | 49.6 ± 6.0 | 34.7 ± 4.1 | 90.5 ± 6.5 | 72.4 ± 14.6 | 39.9 ± 4.7 | EC50 ([2]; EC50 [nM] (mean ± SE)): 2.6 ± 0.4 nM; ventral prostate weight % relative to intact control group ([3]; 0.1 mg/kg): 7.0 ± 3.2%
5 | COC(=O)N1CCN(C(=O)[C@@H]2CN(c3ccc(C#N)c(C(F)(F)F)c3)[C@@H](C(F)(F)F)O2)CC1 [Example 173, methyl 4-((2R,5S)-3-(4-cyano-3-(trifluoromethyl)phenyl)-2-(trifluoromethyl)oxazolidine-5-carbonyl)piperazine-1-carboxylate] | 15.0 ± 1.2 | 1.3 ± 0.3 | 37.5 ± 2.3 | 2.9 ± 0.3 | 3.5 ± 0.5 | 61.1 ± 9.9 | 5.9 ± 2.1 | 9.1 ± 2.1 | 69.9 ± 3.6 | 20.3 ± 4.8 | 12.4 ± 3.5 | 93.0 ± 11.0 | 34.5 ± 4.0 | 24.4 ± 2.0 | 91.4 ± 8.2 | 45.5 ± 8.6 | 33.2 ± 3.3 | 99.5 ± 13.0 | 52.8 ± 10.6 | 48.6 ± 9.3 | EC50 ([2]; EC50 [nM] (mean ± SE)): 5.34 nM; levator ani muscle weight % relative to intact control group ([3]; 0.03 mg/kg): 9.8 ± 0.6%; seminal vesicles weight % relative to intact control group ([3]; 0.03 mg/kg): 1.3 ± 0.4%; ventral prostate weight % relative to intact control group ([3]; 0.03 mg/kg): 0.6 ± 0.1%; ventral prostate weight % relative to intact control group ([3]; 0.1 mg/kg): 3.2 ± 0.6%
6 | (2R,5S)-3-(3-chloro-4-cyanophenyl)-N-(2-chloropyridin-4-yl)-2-(trifluoromethyl)oxazolidine-5-carboxamide [Example 136] | 4.5 ± 0.9 | −0.4 ± 0.1 | 10.0 ± 0.8 | 0.8 ± 0.1 | 1.2 ± 0.3 | 29.1 ± 3.3 | 0.9 ± 0.2 | 2.6 ± 0.4 | 36.6 ± 3.4 | 2.4 ± 0.7 | 4.1 ± 0.9 | 61.8 ± 3.1 | 11.0 ± 3.6 | 10.5 ± 3.7 | 81.4 ± 10.9 | 35.8 ± 14.4 | 25.4 ± 7.8 | 98.5 ± 7.7 | 57.8 ± 17.9 | 42.1 ± 7.5 | EC50 [2, 4]: 5.07 nM; levator ani muscle weight % relative to intact control group ([3]; 0.03 mg/kg): 3.7 ± 0.8%; seminal vesicles weight % relative to intact control group ([3]; 0.03 mg/kg): −0.1 ± 0.0%; ventral prostate weight % relative to intact control group ([3]; 0.03 mg/kg): 1.7 ± 0.5%; ventral prostate weight % relative to intact control group ([3]; 0.1 mg/kg): −0.6 ± 0.3%
7 | (2R,5S)-N-(4-acetamidophenyl)-3-(3-chloro-4-nitrophenyl)-2-(trifluoromethyl)oxazolidine-5-carboxamide [Example 123] | 7.00 ± 0.7 | 0.2 ± 0.0 | 14.7 ± 1.5 | 0.1 ± 0.0 | 1.6 ± 0.2 | 23.0 ± 1.1 | 0.5 ± 0.1 | 0.7 ± 0.2 | 40.2 ± 4.2 | 2.8 ± 1.2 | 5.6 ± 1.9 | 58.7 ± 4.1 | 11.0 ± 2.3 | 7.9 ± 2.2 | 78.9 ± 4.0 | 30.5 ± 5.7 | 23.0 ± 2.9 | 88.5 ± 4.7 | 58.7 ± 10.8 | 39.0 ± 9.8 | EC50 [2, 4]: 7.34 nM; levator ani muscle weight % relative to intact control group ([3]; 0.03 mg/kg): 3.5 ± 0.5%; seminal vesicles weight % relative to intact control group ([3]; 0.03 mg/kg): 0.3 ± 0.0%; ventral prostate weight % relative to intact control group ([3]; 0.03 mg/kg): 0.5 ± 0.1%
